According to paper PMC8508660 (2021):

Experiments:
[1] = system: c-MYC (DNA, G4) TGAGGGTGGGTAGGGTGGGTAA; assay: CD melting, 265 nm; settings: 10 mM K+, 90 mM Li+; 10 mM cacodylate pH 7.2; 2 µM DNA, 3 equiv. (6 µM) ligand; derived from two Tm (±0.5)
[2] = system: 22HT (DNA, G4) AGGGTTAGGGTTAGGGTTAGGG; assay: CD melting, 295 nm; settings: 100 mM Na+; 10 mM cacodylate pH 7.2; 2 µM DNA, 3 equiv. (6 µM) ligand; derived from two Tm (±0.5)
[3] = system: TBA (DNA, aptamer) GGTTGGTGTGGTTGG; assay: CD melting, 295 nm; settings: 100 mM K+; 10 mM cacodylate pH 7.2; 2 µM DNA, 3 equiv. (6 µM) ligand; derived from two Tm (±0.5)
[4] = system: 22HT (DNA, G4) AGGGTTAGGGTTAGGGTTAGGG; assay: CD melting, 290 nm; settings: 100 mM K+; 10 mM cacodylate pH 7.2; 2 µM DNA, 3 equiv. (6 µM) ligand; derived from two Tm (±0.5)

- ΔTm [1]: -0.2 °C
- ΔTm [2]: -0.2 °C
- ΔTm [3]: -0.4 °C
- ΔTm [4]: 0.7 °C
SMILES: COc1nc2c(N)ncnc2[n+]2ccccc12
